# Experimental data as given in patent publication US20040014215A1, “Synchronised arabidopsis cell suspensions and uses thereof” (priority 2000, published 2004).
# Experiments:
# [1] = system: Arabidopsis cell suspension culture MM1; test: Aphidicolin block/release of MM1: mitotic index (DAPI) and labelling index (BrdU); format: cell-based, Arabidopsis thaliana
# Procedure: Arabidopsis cell suspension culture MM1 (DSM 13563) was used for synchronisation experiments. The suspension culture was maintained by sub-culturing weekly 10 ml into 200 ml of fresh MSS-medium (MS-salt, 3% sucrose, 0.5 mg/l NAA, 0.05 mg/l kinetin) which is cultured in 500 ml narrow neck Erlenmeyer flasks, of which the opening is covered with double layer of aluminium foil and loosely covered with Saran wrap and which are placed on a GYROTORY® Shaker (New Brunswick Scientific). The cell suspension culture was grown under continuous light conditions (24 hrs a day); Philips lamps were used with the specification TLD HF 50W/840; light level is in average 1300 Lux and the cell suspension culture is rotated at 120 rpm at a temperature varying between 23-25° C. To arrest cells reversibly in late G1/early S-phase, cells were blocked with aphidicolin according to Nagata et al. 1992 (with slight modifications), 40 ml of an early stationary phase cell suspension culture was subcultured into 200 ml MSS-medium, 4.16 μg/ml aphidicolin was added to block cells at the end of G1/early S-phase, and the culture was incubated at 23° C., 120 rpm in the conditions as described above for MM1, for a period of 21.5 hrs. To remove aphidicolin, cells were washed through a nylon mesh (mesh size 47 μm) with 11 MSS-medium by vigorously shaking and resuspended in MSS-medium. The cells were vigorously shaken, for a washing time of about 14 min, and then centrifuged at 150Orpm for 1 min (387 rcf) with the brake switched off.
# alfalfa-cell suspension = conditions: blocked with aphidicolin for 36 h and released; cited from earlier work
# CDK-b1 = test: Northern expression analysis after aphidicolin synchronisation of MM1 (maximum signal = 100%); format: cell-based, Arabidopsis thaliana
# Procedure: was analysed following the expression level of known cell cycle regulated genes. Synchronisation was performed as described in Example 2A, with the exception that two 7-day old cultures of the weekly sub-cultured cell suspension (210 ml each) were combined. 40 ml of combined culture was transferred into 200 ml of fresh MSS-medium in each of 10 separate flasks. After incubation for 24 hrs under conditions as described in Example 1, in the presence of 4.16 μg/ml aphidicolin, cells from 5 pooled flasks were washed through a nylon net (mesh size 47 μm) and washed with 2 litre MSS medium and shaken vigorously to remove the aphidicolin. Cells were transferred into a 50 ml plastic tube, washed again with MSS medium and centrifuged at 2500 rpm for 1 min (1075 rcf). Cells were resuspended and combined with the cells from the other 5 flasks similarly washed in a total volume of 300 ml fresh MSS-medium. 30 ml of this cell suspension was then added to 200 ml fresh MSS-medium in each of 10 separate flasks.
# 1) 25 ml for Northern blot (transferred into 50 ml plastic tube, centrifuged at 2500 rpm for 1 min, the supernatant discarded, and the cell pellet shock-frozen in liquid nitrogen before storing in −80° C. freezer)
# Samples were collected at the time point indicated (time of removal of aphidicolin equals time point 0 hrs) and were analysed for expression of the following genes by Northern blot:
# CDK-b1 (also called Cdc2b/CDK2b: Accession no. ATCDC2BP)
# For each probe the maximum hybridisation signal obtained was defined as 100%.
# [2] = range seen on blocking the cells with aphidicolin
# [3] = this experiment (Example 2A), after release from aphidicolin block
# [4] = 0 hrs after aphidicolin removal
# [5] = 2 hrs after aphidicolin removal
# [6] = 4 hrs after aphidicolin removal
# [7] = 6 hrs after aphidicolin removal
# [8] = 8 hrs after aphidicolin removal
# [9] = 10 hrs after aphidicolin removal
# [10] = 12 hrs after aphidicolin removal
# [11] = 14 hrs after aphidicolin removal
# [12] = 16 hrs after aphidicolin removal
# [13] = 18 hrs after aphidicolin removal
# [14] = 20 hrs after aphidicolin removal
# [15] = 22 hrs after aphidicolin removal
# [16] = 24 hrs after aphidicolin removal
# [17] = 26 hrs after aphidicolin removal
# [18] = 28 hrs after aphidicolin removal
# [19] = 30 hrs after aphidicolin removal
compound,measurement,setting,value
C[C@@]1(CO)[C@H](O)CC[C@@]2(C)[C@H]1CC[C@H]1C[C@@H]3C[C@@]12CC[C@]3(O)CO [aphidicolin],Labelling Index (%),[1]; 1 h after aphidicolin removal,23.21%
same,Mitotic index (%),[1]; 1 h after aphidicolin removal,0%
same,Labelling Index (%),[1]; 2 h after aphidicolin removal,41.3%
same,Mitotic index (%),[1]; 2 h after aphidicolin removal,0.5%
same,Labelling Index (%),[1]; 3 h after aphidicolin removal,65.06%
same,Mitotic index (%),[1]; 3 h after aphidicolin removal,0.58%
same,Labelling Index (%),[1]; 4 h after aphidicolin removal,64.13%
same,Mitotic index (%),[1]; 4 h after aphidicolin removal,0.5%
same,Labelling Index (%),[1]; 5 h after aphidicolin removal,50%
same,Mitotic index (%),[1]; 5 h after aphidicolin removal,0.68%
same,Labelling Index (%),[1]; 6 h after aphidicolin removal,18.43%
same,Mitotic index (%),[1]; 6 h after aphidicolin removal,1.88%
same,Labelling Index (%),[1]; 7 h after aphidicolin removal,13.67%
same,Mitotic index (%),[1]; 7 h after aphidicolin removal,2.37%
same,Labelling Index (%),[1]; 8 h after aphidicolin removal,10.32%
same,Mitotic index (%),[1]; 8 h after aphidicolin removal,2.04%
same,Labelling Index (%),[1]; 9 h after aphidicolin removal,8.1%
same,Mitotic index (%),[1]; 9 h after aphidicolin removal,2.63%
same,Labelling Index (%),[1]; 10 h after aphidicolin removal,7.86%
same,Mitotic index (%),[1]; 10 h after aphidicolin removal,2.84%
same,Labelling Index (%),[1]; 11 h after aphidicolin removal,7.65%
same,Mitotic index (%),[1]; 11 h after aphidicolin removal,5.06%
same,Labelling Index (%),[1]; 12 h after aphidicolin removal,6.8%
same,Mitotic index (%),[1]; 12 h after aphidicolin removal,7.96%
same,Labelling Index (%),[1]; 13 h after aphidicolin removal,3.08%
same,Mitotic index (%),[1]; 13 h after aphidicolin removal,11.67%
same,Labelling Index (%),[1]; 14 h after aphidicolin removal,5.05%
same,Mitotic index (%),[1]; 14 h after aphidicolin removal,9.03%
same,Labelling Index (%),[1]; 15 h after aphidicolin removal,3.68%
same,Mitotic index (%),[1]; 15 h after aphidicolin removal,7.86%
same,Labelling Index (%),[1]; 16 h after aphidicolin removal,4.09%
same,Mitotic index (%),[1]; 16 h after aphidicolin removal,5%
same,Labelling Index (%),[1]; 17 h after aphidicolin removal,9.46%
same,Mitotic index (%),[1]; 17 h after aphidicolin removal,2.96%
same,Labelling Index (%),[1]; 18 h after aphidicolin removal,12.96%
same,Mitotic index (%),[1]; 18 h after aphidicolin removal,3.24%
same,Labelling Index (%),[1]; 19 h after aphidicolin removal,10.91%
same,Mitotic index (%),[1]; 19 h after aphidicolin removal,2.06%
same,MI peak,[1]; [2],10 to 15%
same,labelling index,[1]; [2],50-65%
same,LI peak,[1]; [3],65%
same,MI peak,[1]; [3],12%
same,peak mitotic index,alfalfa-cell suspension,up to 40%
same,CDK-b1 %,CDK-b1; [4],34.26%
same,CDK-b1 Band intensity,CDK-b1; [4],500
same,CDK-b1 %,CDK-b1; [5],57.86%
same,CDK-b1 Band intensity,CDK-b1; [5],844
same,CDK-b1 %,CDK-b1; [6],69.78%
same,CDK-b1 Band intensity,CDK-b1; [6],1018
same,CDK-b1 %,CDK-b1; [7],74.34%
same,CDK-b1 Band intensity,CDK-b1; [7],1085
same,CDK-b1 %,CDK-b1; [8],79.46%
same,CDK-b1 Band intensity,CDK-b1; [8],1160
same,CDK-b1 %,CDK-b1; [9],96.41%
same,CDK-b1 Band intensity,CDK-b1; [9],1407
same,CDK-b1 %,CDK-b1; [10],99.31%
same,CDK-b1 Band intensity,CDK-b1; [10],1450
same,CDK-b1 %,CDK-b1; [11],100.0%
same,CDK-b1 Band intensity,CDK-b1; [11],1459
same,CDK-b1 %,CDK-b1; [12],73.89%
same,CDK-b1 Band intensity,CDK-b1; [12],1078
same,CDK-b1 %,CDK-b1; [13],51.49%
same,CDK-b1 Band intensity,CDK-b1; [13],751
same,CDK-b1 %,CDK-b1; [14],58.87%
same,CDK-b1 Band intensity,CDK-b1; [14],859
same,CDK-b1 %,CDK-b1; [15],42.07%
same,CDK-b1 Band intensity,CDK-b1; [15],614
same,CDK-b1 %,CDK-b1; [16],30.65%
same,CDK-b1 Band intensity,CDK-b1; [16],447
same,CDK-b1 %,CDK-b1; [17],49.74%
same,CDK-b1 Band intensity,CDK-b1; [17],726
same,CDK-b1 %,CDK-b1; [18],50.87%
same,CDK-b1 Band intensity,CDK-b1; [18],742
same,CDK-b1 %,CDK-b1; [19],57.47%
same,CDK-b1 Band intensity,CDK-b1; [19],839
